Measurements: patent publication US9776972B2, “Pyrazole derivatives as arginine methyltransferase inhibitors and uses thereof” (priority 2013, dated 2017)
Where a name gives a salt, the structure may show the parent alone.

Experiments:
human PRMT1 = target: T1, human PRMT1 (Homo sapiens, UniProt Q99873); assay: PRMT1 Biochemical Assay (3H-SAM Flashplate, peptide substrate); details: single experiment or average of multiple experiments
T1 construct: GST-tagged PRMT1; made in house; host or cells: High Five insect cells (baculovirus)
Method in brief: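 GST-tagged PRMT1 from baculovirus-infected cells, preincubated with compounds 30 min at room temperature in 20 mM Bicine pH 7.6, 1 mM TCEP, 0.005% BSG, 0.002% Tween 20. Reaction started with ³H-SAM plus biotinylated peptide, stopped with 300 µM cold SAM.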

human PRMT6 = target: T2, human PRMT6 (Homo sapiens, UniProt Q96LA8); assay: PRMT6 Biochemical Assay (3H-SAM Flashplate, peptide substrate); details: Biochemical IC50 PRMT6, single experiment or average of multiple experiments
T2 construct: Flag-PRMT6-His; made in house; host or cells: HEK 293F cells (BacMam baculovirus)
Method in brief: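 Methylation of a biotin-tagged H4 (36-50) peptide by ³H-SAM was quantified by streptavidin Flashplate capture and scintillation counts (dpm/cpm). Before SAM/peptide addition, Flag-PRMT6-His was preincubated with compound for 30 min at room temperature in Bicine buffer, pH 7.6.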

T1 sequence (Q99873 with tags, fused parts or gaps): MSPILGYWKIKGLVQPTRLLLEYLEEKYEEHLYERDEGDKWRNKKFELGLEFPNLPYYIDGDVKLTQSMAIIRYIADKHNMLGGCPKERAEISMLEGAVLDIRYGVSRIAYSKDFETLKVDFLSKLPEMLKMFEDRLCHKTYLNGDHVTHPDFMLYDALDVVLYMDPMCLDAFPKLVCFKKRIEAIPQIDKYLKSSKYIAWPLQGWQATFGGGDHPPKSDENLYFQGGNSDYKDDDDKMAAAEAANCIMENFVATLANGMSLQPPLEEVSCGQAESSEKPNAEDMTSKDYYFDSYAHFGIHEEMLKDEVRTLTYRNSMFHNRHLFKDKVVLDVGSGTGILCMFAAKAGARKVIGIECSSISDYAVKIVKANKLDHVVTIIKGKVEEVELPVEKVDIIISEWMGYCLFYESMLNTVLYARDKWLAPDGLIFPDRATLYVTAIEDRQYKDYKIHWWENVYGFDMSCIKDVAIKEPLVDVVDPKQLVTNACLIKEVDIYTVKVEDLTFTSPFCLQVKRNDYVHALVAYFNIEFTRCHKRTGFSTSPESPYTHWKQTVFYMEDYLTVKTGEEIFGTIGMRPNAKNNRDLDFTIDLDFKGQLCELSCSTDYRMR
T2 sequence (Q96LA8 with tags, fused parts or gaps): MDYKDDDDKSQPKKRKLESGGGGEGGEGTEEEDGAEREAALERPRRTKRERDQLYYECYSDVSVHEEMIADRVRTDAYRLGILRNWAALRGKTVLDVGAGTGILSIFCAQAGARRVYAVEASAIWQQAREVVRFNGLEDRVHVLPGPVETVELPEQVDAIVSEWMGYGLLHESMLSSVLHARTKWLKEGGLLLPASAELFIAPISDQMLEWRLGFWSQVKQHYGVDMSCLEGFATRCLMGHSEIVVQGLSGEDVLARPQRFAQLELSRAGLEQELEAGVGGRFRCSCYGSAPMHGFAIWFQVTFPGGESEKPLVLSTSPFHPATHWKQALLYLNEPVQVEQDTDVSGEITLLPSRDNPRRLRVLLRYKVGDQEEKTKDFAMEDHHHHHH

SMILES	IC50 (human PRMT1)	IC50 (human PRMT6)
CNCCN(C)Cc1cn(CCOC)nc1-c1ccc(OC(C)C)cc1 [Compound 253, N1-((3-(4-isopropoxyphenyl)-1-(2-methoxyethyl)-1H-pyrazol-4-yl)methyl)-N1,N2-dimethylethane-1,2-diamine hydrochloride]	113 nM	748 nM
CNCCN(C)Cc1cn(C2CCC2)nc1-c1ccc(OC(C)C)cc1 [Compound 254, N1-((1-cyclobutyl-3-(4-isopropoxyphenyl)-1H-pyrazol-4-yl)methyl)-N1,N2-dimethylethane-1,2-diamine hydrochloride]	29.3 nM	201 nM
CNCCN(C)Cc1cnn(C2CCCC2)c1-c1ccc(OC(C)C)cc1 [Compound 255]	16.8 nM	75.1 nM
CNCCN(C)Cc1cn(C2CCCCC2)nc1-c1ccc(OC(C)C)cc1 [Compound 256]	132 nM	921 nM
C=C(C)C(=O)Nc1cccc(-c2[nH]ncc2CN(C)CCNC)c1 [Compound 257]	135 nM	213 nM
C=CC(=O)Nc1cccc(-c2[nH]ncc2CN(C)CCNC)c1 [Compound 258]	43.9 nM	173 nM
CN(CCN)Cc1c[nH]nc1-c1ccc(Oc2ccccc2F)cc1 [Compound 259]	1.32 nM	0.8 nM
CNCCN(C)Cc1c[nH]nc1-c1cc(OC(C)C)cc(C(C)C)c1 [Compound 260]	23.9 nM	243 nM
CNCCN(C)Cc1c[nH]nc1-c1ccc(Oc2cccc(C#N)c2)cc1 [Compound 261]	2.94 nM	2.44 nM
CNCCN(C)Cc1c[nH]nc1-c1ccc(Oc2cccc(C(C)C)c2)cc1 [Compound 262]	5.63 nM	1.46 nM
CNCCN(C)Cc1c[nH]nc1-c1cc(Cl)c(OC(C)C)c(Cl)c1 [Compound 265, N^1-((3-(3,5-dichloro-4-isopropoxyphenyl)-1H-pyrazol-4-yl)methyl)-N^1,N^2-dimethylethane-1,2-diamine]	5.67 nM	15.7 nM
CNCCN(C)Cc1nn(C)cc1-c1ccc(OCCCOC)cc1 [Compound 266]	176 nM	33 nM
CNCCN(C)Cc1n[nH]cc1-c1ccc(Oc2cccc(C#N)c2)cc1 [Compound 267]	3.47 nM	1.56 nM
CNCCN(C)Cc1n[nH]cc1-c1ccc(Oc2cccc(C(=O)NC)c2)cc1 [Compound 268]	4.58 nM	2 nM
CNCCN(C)Cc1n[nH]cc1-c1ccc(Oc2cccc(F)c2)cc1 [Compound 270]	2.79 nM	1.24 nM
CNCCN(C)Cc1n[nH]cc1-c1cc(CC(C)C)cc(CC(C)C)c1 [Compound 271]	52.4 nM	864 nM
CNCCN(C)Cc1n[nH]cc1-c1cc(OC(C)C)cc(C(C)C)c1 [Compound 272]	156 nM	> 1000 nM
CNCCN(C)Cc1n[nH]cc1-c1cc(Cl)c(OC(C)C)c(Cl)c1 [Compound 273]	8.56 nM	31.6 nM
CNCCN(C)Cc1c[nH]nc1-c1ccc(Oc2ccccc2C(=O)NC)cc1 [Compound 274]	19.3 nM	7.57 nM
CNCCN(C)Cc1n[nH]c(C)c1-c1ccc(OC(C)C)cc1 [Compound 275]	8.63 nM	20.9 nM
CNCCN(C)Cc1c(-c2ccc(OCCCOC)cc2)cnn1C [Compound 276]	> 1000 nM	> 1000 nM
CNCCN(C)Cc1n[nH]cc1-c1ccc(Oc2cccc(C(C)C)c2)cc1 [Compound 277]	20.2 nM	1.66 nM
CNCCN(C)Cc1n[nH]cc1-c1ccc(Oc2ccccc2F)cc1 [Compound 279, N^1-((4-(4-(2-fluorophenoxy)phenyl)-1H-pyrazol-3-yl)methyl)-N^1,N^2-dimethylethane-1,2-diamine]	3.46 nM	1.87 nM
CC(C)Cc1cc(-c2n[nH]cc2CN(C)CCN)ccc1F [Compound 280]	4.3 nM	10.2 nM
CNCCN(C)Cc1c[nH]nc1-c1cc(CC(C)C)cc(CC(C)C)c1 [Compound 281]	11.2 nM	241 nM
CNCCN(C)Cc1c[nH]nc1-c1cc(Cl)c(OCC2CC2)c(Cl)c1 [Compound 282]	2.21 nM	4.75 nM
